Laboratory results published in ChEMBL document CHEMBL3580639, “Bioactive Limonoid Constituents of Munronia henryi” (J Nat Prod, 2015).
≈ marks a conversion by molar mass, not a printed value.

Experiments:
[1] = system: Tobacco mosaic virus; assay: Antiviral activity against TMV U1 infected on 20 mins compound treated fresh leaves from 5 to 6 growth stage Nicotiana glutinosa assessed as inhibition of virus growth at 50 ug/ml cultured at 25 degC for 72 hrs by half-leaf method; assay type: functional; conditions: U1, in Nicotiana glutinosa
[2] = system: Tobacco mosaic virus; assay: Antiviral activity against 30 mins compound pre-treated TMV U1 infected on Nicotiana glutinosa leaves assessed as virus inactivation effect by measuring local lesion numbers after 3 to 4 days post virus inoculation at 50 ug/ml by half-leaf method; assay type: functional; conditions: U1, in Nicotiana glutinosa
[3] = system: Tobacco mosaic virus; assay: Antiviral activity against TMV U1 infected on compound smeared Nicotiana glutinosa leaves assessed as virus infection protective effect by measuring local lesion numbers after 3 to 4 days post virus inoculation at 200 ug/ml by half-leaf method; assay type: functional; conditions: U1, in Nicotiana glutinosa
[4] = system: Tobacco mosaic virus; assay: Antiviral activity against TMV U1 infected on Nicotiana glutinosa leaves smeared with virus before compound treatment assessed as virus infection curative effect by measuring local lesion numbers after 3 to 4 days post virus inoculation at 200 ug/ml by half-leaf method; assay type: functional; conditions: U1, in Nicotiana glutinosa
[5] = system: Tobacco mosaic virus; assay: Antiviral activity against 30 mins compound pre-treated TMV U1 infected on Nicotiana glutinosa leaves assessed as virus inactivation effect by measuring local lesion numbers after 3 to 4 days post virus inoculation at 50 ug/ml by half-leaf method relative to untreated control; assay type: functional; conditions: U1, in Nicotiana glutinosa
[6] = system: Tobacco mosaic virus; assay: Antiviral activity against 30 mins compound pre-treated TMV U1 infected on Nicotiana glutinosa leaves assessed as virus inactivation effect by measuring local lesion numbers after 3 to 4 days post virus inoculation at 40 ug/ml by half-leaf method relative to untreated control; assay type: functional; conditions: U1, in Nicotiana glutinosa
[7] = system: Tobacco mosaic virus; assay: Antiviral activity against 30 mins compound pre-treated TMV U1 infected on Nicotiana glutinosa leaves assessed as virus inactivation effect by measuring local lesion numbers after 3 to 4 days post virus inoculation at 30 ug/ml by half-leaf method relative to untreated control; assay type: functional; conditions: U1, in Nicotiana glutinosa
[8] = system: Tobacco mosaic virus; assay: Antiviral activity against 30 mins compound pre-treated TMV U1 infected on Nicotiana glutinosa leaves assessed as virus inactivation effect by measuring local lesion numbers after 3 to 4 days post virus inoculation at 20 ug/ml by half-leaf method relative to untreated control; assay type: functional; conditions: U1, in Nicotiana glutinosa
[9] = system: Tobacco mosaic virus; assay: Antiviral activity against 30 mins compound pre-treated TMV U1 infected on Nicotiana glutinosa leaves assessed as virus inactivation effect by measuring local lesion numbers after 3 to 4 days post virus inoculation at 10 ug/ml by half-leaf method relative to untreated control; assay type: functional; conditions: U1, in Nicotiana glutinosa
[10] = system: Tobacco mosaic virus; assay: Antiviral activity against 30 mins compound pre-treated TMV U1 infected on Nicotiana glutinosa leaves assessed as virus inactivation effect by measuring local lesion numbers after 3 to 4 days post virus inoculation at 5 ug/ml by half-leaf method relative to untreated control; assay type: functional; conditions: U1, in Nicotiana glutinosa
[11] = system: Tobacco mosaic virus; assay: (§1) Antiviral activity against 30 mins compound pre-treated TMV U1 infected on Nicotiana glutinosa leaves assessed as virus inactivation effect by measuring local lesion numbers after 3 to 4 days post virus inoculation by half-leaf method relative to untreated control; assay type: functional, organism-based
[12] = system: Tobacco mosaic virus; assay: as §1, with “Potency index, ratio of IC50 for ningnanmycin to IC50 for test compound” for “Antiviral activity”; assay type: functional
[13] = system: HL-60; assay: Cytotoxicity against human HL60 cells incubated for 48 hrs by MTT assay; assay type: functional, cell-based; conditions: HL-60, 48 h
[14] = system: SMMC-7721; assay: Cytotoxicity against human SMMC7721 cells incubated for 48 hrs by MTT assay; assay type: functional, cell-based; conditions: SMMC-7721, 48 h
[15] = system: A549; assay: Cytotoxicity against human A549 cells incubated for 48 hrs by MTT assay; assay type: functional, cell-based; conditions: A549, 48 h
[16] = system: MCF7; assay: Cytotoxicity against human MCF7 cells incubated for 48 hrs by MTT assay; assay type: functional, cell-based; conditions: MCF7, 48 h
[17] = system: SW480; assay: Cytotoxicity against human SW480 cells incubated for 48 hrs by MTT assay; assay type: functional, cell-based; conditions: SW480, 48 h

SMILES | inhibition at 50 µg/mL [1] [%] | inhibition at 50 µg/mL [2] [%] | inhibition at 200 µg/mL [3] [%] | inhibition at 200 µg/mL [4] [%] | inhibition at 50 µg/mL [5] [%] | inhibition at 40 µg/mL [6] [%] | inhibition at 30 µg/mL [7] [%] | inhibition at 20 µg/mL [8] [%] | inhibition at 10 µg/mL [9] [%] | inhibition at 5 µg/mL [10] [%] | IC50 [11] [µg/mL] | Ratio IC50 [12] | IC50 [13] [µM] | IC50 [14] [µM] | IC50 [15] [µM] | IC50 [16] [µM] | IC50 [17] [µM]
CC(=O)O[C@@H]1[C@@H]2[C@@]3(C)C=CC(=O)OC(C)(C)[C@@H]3CC(=O)[C@@]2(C)[C@@]23O[C@@H]2C[C@@H](c2ccoc2)[C@]3(C)[C@H]1OC(C)=O | 98.9 | 98.2 | 56.7 | 52.8 | 95.6 | 92.3 | 86.1 | 62.3 | 30.9 | 11.8 | 19.6 (≈ 36.3 µM) | 2 | > 10 | > 10 | > 10 | > 10 | > 10
CC(=O)O[C@H]1C[C@H]2[C@](C)(C3=CC[C@@H](c4ccoc4)[C@@]31C)[C@H](OC(C)=O)C[C@H]1C(C)(C)OC(=O)C[C@H](OC(C)=O)[C@@]12C [MUNRONOID L] | 80 | 61.4 | 42.1 | 23.7 | 60.8 | 57.6 | 51.4 | 48 | 21.5 | 10.2 | 29 (≈ 50.8 µM) |  | > 10 | > 10 | > 10 | > 10 | > 10
